Data taken from patent US12539292B2, “BRM targeting compounds and associated methods of use” (Arvinas Operations, Inc., priority 2018, dated 2026).

Target: T1, BRM (Homo sapiens, UniProt P51531)
T1 construct: In-Cell Western Screen of BRM Degradation in SW1573 Cells; endogenous in cells; host or cells: SW1573
Assay: In-cell Western screen of BRM degradation in SW1573 cells (Dmax and DC50)
Format: cell-based
Details: for Dmax: SW1573, % degraded, when tested at the top concentration of between 0.3 and 10 μM, read-out: BRM Dmax (%); for DC50: degradation of BRM, read-out: BRM DC50
Procedure, shortened: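 SW1573 cells were treated with compound overnight (18-20 h; final DMSO 0.1%), then fixed in 4% PFA, permeabilized with Triton X-100 and blocked. BRM was detected by in-cell Western using 800 nm anti-rabbit and 680 nm anti-mouse secondaries, and Dmax and DC50 were derived from the LI-COR Odyssey signal.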

T1 sequence (P51531 whole entry): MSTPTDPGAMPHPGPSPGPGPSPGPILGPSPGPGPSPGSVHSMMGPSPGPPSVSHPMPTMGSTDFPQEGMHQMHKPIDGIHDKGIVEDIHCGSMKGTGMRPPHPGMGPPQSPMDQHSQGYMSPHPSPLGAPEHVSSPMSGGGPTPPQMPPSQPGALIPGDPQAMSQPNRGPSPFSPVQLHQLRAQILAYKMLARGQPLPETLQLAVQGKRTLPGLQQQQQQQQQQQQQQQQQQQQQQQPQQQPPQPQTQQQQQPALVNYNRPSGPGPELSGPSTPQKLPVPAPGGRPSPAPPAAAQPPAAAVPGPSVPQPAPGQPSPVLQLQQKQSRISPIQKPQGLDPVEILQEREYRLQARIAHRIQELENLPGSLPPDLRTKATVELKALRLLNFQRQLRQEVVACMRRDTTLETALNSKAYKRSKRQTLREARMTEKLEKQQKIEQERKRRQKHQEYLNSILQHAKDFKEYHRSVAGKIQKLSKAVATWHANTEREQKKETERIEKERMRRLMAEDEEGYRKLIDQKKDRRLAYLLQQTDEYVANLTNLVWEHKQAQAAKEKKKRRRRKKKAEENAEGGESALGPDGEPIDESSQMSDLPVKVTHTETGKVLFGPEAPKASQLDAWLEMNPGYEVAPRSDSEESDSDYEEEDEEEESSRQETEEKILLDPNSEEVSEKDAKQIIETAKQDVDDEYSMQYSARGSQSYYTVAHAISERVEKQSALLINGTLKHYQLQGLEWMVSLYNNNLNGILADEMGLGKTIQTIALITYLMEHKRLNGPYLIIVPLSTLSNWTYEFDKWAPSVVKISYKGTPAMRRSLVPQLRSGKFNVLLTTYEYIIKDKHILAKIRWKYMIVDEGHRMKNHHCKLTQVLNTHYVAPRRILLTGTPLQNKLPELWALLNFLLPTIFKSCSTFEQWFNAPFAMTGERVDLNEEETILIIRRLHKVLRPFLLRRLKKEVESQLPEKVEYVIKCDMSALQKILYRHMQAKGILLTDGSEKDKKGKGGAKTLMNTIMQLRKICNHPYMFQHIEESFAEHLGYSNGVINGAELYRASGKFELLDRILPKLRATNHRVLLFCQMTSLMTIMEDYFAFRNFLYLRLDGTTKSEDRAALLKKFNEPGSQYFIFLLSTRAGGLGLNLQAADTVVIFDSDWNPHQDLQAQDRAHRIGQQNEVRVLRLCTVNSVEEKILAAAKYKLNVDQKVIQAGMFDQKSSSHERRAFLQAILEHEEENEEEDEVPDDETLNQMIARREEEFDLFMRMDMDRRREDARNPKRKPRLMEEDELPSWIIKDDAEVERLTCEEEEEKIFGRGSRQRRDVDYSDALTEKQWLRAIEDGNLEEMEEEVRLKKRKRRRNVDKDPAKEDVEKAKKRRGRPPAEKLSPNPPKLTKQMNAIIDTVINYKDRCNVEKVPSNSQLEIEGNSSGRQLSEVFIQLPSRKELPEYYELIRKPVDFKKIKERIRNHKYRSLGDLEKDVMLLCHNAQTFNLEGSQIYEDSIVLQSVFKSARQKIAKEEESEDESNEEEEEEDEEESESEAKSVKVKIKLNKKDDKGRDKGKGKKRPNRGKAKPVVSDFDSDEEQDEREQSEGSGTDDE

Row | SMILES | Dmax [%] | DC50 [nM]
1 | Cc1ncsc1-c1ccc([C@H](C)NC(=O)[C@@H]2C[C@@H](O)CN2C(=O)[C@@H](c2cc(OCCC3CCN(C[C@H]4C[C@H](Oc5cc(N6C7CCC6CN(c6cc(-c8ccccc8O)nnc6N)C7)ccn5)C4)CC3)no2)C(C)C)cc1 [compound 417, (2S,4R)-1-((2R)-2-(3-(2-(1-(((1r,3R)-3-((4-(3-(3-amino-6-(2-hydroxyphenyl)pyridazin-4-yl)-3,8-diazabicyclo[3.2.1]octan-8-yl)pyridin-2-yl)oxy)cyclobutyl)methyl)piperidin-4-yl)ethoxy)isoxazol-5-yl)-3-methylbutanoyl)-4-hydroxy-N-((S)-1-(4-(4-methylthiazol-5-yl)phenyl)ethyl)pyrrolidine-2-carboxamide] | > 75 | < 2.5
2 | CC(C)[C@H](C(=O)N1C[C@H](O)C[C@H]1C(=O)NCc1ccc(C2(F)CC2)cc1)c1cc(OCCN2CCC(O[C@H]3C[C@H](Oc4cc(N5C6CCC5CN(c5cc(-c7ccccc7O)nnc5N)C6)ccn4)C3)CC2)no1 [compound 418, (2S,4R)-1-((2S)-2-(3-(2-(4-((1r,3S)-3-((4-(3-(3-amino-6-(2-hydroxyphenyl)pyridazin-4-yl)-3,8-diazabicyclo[3.2.1]octan-8-yl)pyridin-2-yl)oxy)cyclobutoxy)piperidin-1-yl)ethoxy)isoxazol-5-yl)-3-methylbutanoyl)-N-(4-(1-fluorocyclopropyl)benzyl)-4-hydroxypyrrolidine-2-carboxamide] |  | > 30
3 | CC(C)[C@@H](C(=O)N1C[C@H](O)C[C@H]1C(=O)NCc1ccc(C2(F)CC2)cc1)c1cc(OCCN2CCC(O[C@H]3C[C@H](Oc4cc(N5C6CCC5CN(c5cc(-c7ccccc7O)nnc5N)C6)ccn4)C3)CC2)no1 [compound 419, (2S,4R)-1-((2R)-2-(3-(2-(4-((1r,3R)-3-((4-(3-(3-amino-6-(2-hydroxyphenyl)pyridazin-4-yl)-3,8-diazabicyclo[3.2.1]octan-8-yl)pyridin-2-yl)oxy)cyclobutoxy)piperidin-1-yl)ethoxy)isoxazol-5-yl)-3-methylbutanoyl)-N-(4-(1-fluorocyclopropyl)benzyl)-4-hydroxypyrrolidine-2-carboxamide] | > 75 | 2.5 to 10
4 | Cc1ncsc1-c1ccc([C@@H](NC(=O)[C@@H]2C[C@@H](O)CN2C(=O)[C@@H](c2cc(OCCN3CCC(O[C@H]4C[C@H](Oc5cc(N6C7CCC6CN(c6cc(-c8ccccc8O)nnc6N)C7)ccn5)C4)CC3)no2)C(C)C)C(=O)N(C)C2CCC2)cc1 [compound 420, (2S,4R)-1-((2R)-2-(3-(2-(4-((1r,3R)-3-((4-(3-(3-amino-6-(2-hydroxyphenyl)pyridazin-4-yl)-3,8-diazabicyclo[3.2.1]octan-8-yl)pyridin-2-yl)oxy)cyclobutoxy)piperidin-1-yl)ethoxy)isoxazol-5-yl)-3-methylbutanoyl)-N-((R)-2-(cyclobutyl(methyl)amino)-1-(4-(4-methylthiazol-5-yl)phenyl)-2-oxoethyl)-4-hydroxypyrrolidine-2-carboxamide] | > 75 | < 2.5
5 | Cc1ncsc1-c1ccc([C@H](C)NC(=O)[C@@H]2C[C@@H](O)CN2C(=O)[C@H](c2cc(OCC(F)(F)CN3CCC(O[C@H]4C[C@H](Oc5cc(N6C7CCC6CN(c6cc(-c8ccccc8O)nnc6N)C7)ccn5)C4)CC3)no2)C(C)C)cn1 [compound 421, (2S,4R)-1-((2S)-2-(3-(3-(4-((1r,3S)-3-((4-(3-(3-amino-6-(2-hydroxyphenyl)pyridazin-4-yl)-3,8-diazabicyclo[3.2.1]octan-8-yl)pyridin-2-yl)oxy)cyclobutoxy)piperidin-1-yl)-2,2-difluoropropoxy)isoxazol-5-yl)-3-methylbutanoyl)-4-hydroxy-N-((S)-1-(6-(4-methylthiazol-5-yl)pyridin-3-yl)ethyl)pyrrolidine-2-carboxamide] |  | > 30
6 | Cc1ncsc1-c1ccc([C@H](C)NC(=O)[C@@H]2C[C@@H](O)CN2C(=O)[C@@H](c2cc(OCC(F)(F)CN3CCC(O[C@H]4C[C@H](Oc5cc(N6C7CCC6CN(c6cc(-c8ccccc8O)nnc6N)C7)ccn5)C4)CC3)no2)C(C)C)cn1 [compound 422, (2S,4R)-1-((2R)-2-(3-(3-(4-((1r,3R)-3-((4-(3-(3-amino-6-(2-hydroxyphenyl)pyridazin-4-yl)-3,8-diazabicyclo[3.2.1]octan-8-yl)pyridin-2-yl)oxy)cyclobutoxy)piperidin-1-yl)-2,2-difluoropropoxy)isoxazol-5-yl)-3-methylbutanoyl)-4-hydroxy-N-((S)-1-(6-(4-methylthiazol-5-yl)pyridin-3-yl)ethyl)pyrrolidine-2-carboxamide] | > 75 | < 2.5
7 | Cc1ncsc1-c1ccc([C@@H](NC(=O)[C@@H]2C[C@@H](O)CN2C(=O)[C@H](c2cc(OCCN3CCC(O[C@H]4C[C@H](Oc5cc(N6C7CCC6CN(c6cc(-c8ccccc8O)nnc6N)C7)ccn5)C4)CC3)no2)C(C)C)C(=O)N(C)C2CCC2)cc1 [compound 423, (2S,4R)-1-((2S)-2-(3-(2-(4-((1r,3S)-3-((4-(3-(3-amino-6-(2-hydroxyphenyl)pyridazin-4-yl)-3,8-diazabicyclo[3.2.1]octan-8-yl)pyridin-2-yl)oxy)cyclobutoxy)piperidin-1-yl)ethoxy)isoxazol-5-yl)-3-methylbutanoyl)-N-((R)-2-(cyclobutyl(methyl)amino)-1-(4-(4-methylthiazol-5-yl)phenyl)-2-oxoethyl)-4-hydroxypyrrolidine-2-carboxamide] |  | > 30
8 | Cc1cc([C@@H](C(=O)N2C[C@H](O)C[C@H]2C(=O)N[C@@H](C)c2ccc(-c3scnc3C)cc2)[C@H](C)COCCCCN2C3CCC2CN(c2cc(-c4ccccc4O)nnc2N)C3)on1 [compound 424, (2S,4R)-1-((2S,3S)-4-(4-(3-(3-amino-6-(2-hydroxyphenyl)pyridazin-4-yl)-3,8-diazabicyclo[3.2.1]octan-8-yl)butoxy)-3-methyl-2-(3-methylisoxazol-5-yl)butanoyl)-4-hydroxy-N-((S)-1-(4-(4-methylthiazol-5-yl)phenyl)ethyl)pyrrolidine-2-carboxamide] |  | > 30
9 | Cc1cc([C@H](C(=O)N2C[C@H](O)C[C@H]2C(=O)N[C@@H](C)c2ccc(-c3scnc3C)cc2)[C@H](C)COCCCCN2C3CCC2CN(c2cc(-c4ccccc4O)nnc2N)C3)on1 [compound 425, (2S,4R)-1-((2R,3S)-4-(4-(3-(3-amino-6-(2-hydroxyphenyl)pyridazin-4-yl)-3,8-diazabicyclo[3.2.1]octan-8-yl)butoxy)-3-methyl-2-(3-methylisoxazol-5-yl)butanoyl)-4-hydroxy-N-((S)-1-(4-(4-methylthiazol-5-yl)phenyl)ethyl)pyrrolidine-2-carboxamide] |  | > 30
10 | Cc1ncsc1-c1ccc([C@H](C)NC(=O)[C@@H]2C[C@@H](O)CN2C(=O)[C@H](c2cc(N3CCN(CC4CCN(C[C@H]5C[C@H](Oc6cc(N7C8CCC7CN(c7cc(-c9ccccc9O)nnc7N)C8)ccn6)C5)CC4)CC3)no2)C(C)C)cn1 [compound 426, (2S,4R)-1-((2S)-2-(3-(4-((1-(((11,3r)-3-((4-(3-(3-amino-6-(2-hydroxyphenyl)pyridazin-4-yl)-3,8-diazabicyclo[3.2.1]octan-8-yl)pyridin-2-yl)oxy)cyclobutyl)methyl)piperidin-4-yl)methyl)piperazin-1-yl)isoxazol-5-yl)-3-methylbutanoyl)-4-hydroxy-N-((S)-1-(6-(4-methylthiazol-5-yl)pyridin-3-yl)ethyl)pyrrolidine-2-carboxamide] |  | > 30
11 | Cc1ncsc1-c1ccc([C@H](C)NC(=O)[C@@H]2C[C@@H](O)CN2C(=O)[C@@H](c2cc(N3CCN(CC4CCN(C[C@H]5C[C@H](Oc6cc(N7C8CCC7CN(c7cc(-c9ccccc9O)nnc7N)C8)ccn6)C5)CC4)CC3)no2)C(C)C)cn1 [compound 427, (2S,4R)-1-((2R)-2-(3-(4-((1-(((1r,3r)-3-((4-(3-(3-amino-6-(2-hydroxyphenyl)pyridazin-4-yl)-3,8-diazabicyclo[3.2.1]octan-8-yl)pyridin-2-yl)oxy)cyclobutyl)methyl)piperidin-4-yl)methyl)piperazin-1-yl)isoxazol-5-yl)-3-methylbutanoyl)-4-hydroxy-N-((S)-1-(6-(4-methylthiazol-5-yl)pyridin-3-yl)ethyl)pyrrolidine-2-carboxamide] | > 75 | < 2.5
12 | Cc1ncsc1-c1ccc([C@H](C)NC(=O)[C@@H]2C[C@@H](O)CN2C(=O)[C@@H](c2cc(OCCN3CCC(O[C@H]4C[C@H](Oc5cc(/C=C/c6cc(-c7ccccc7O)nnc6N)ccn5)C4)CC3)no2)C(C)C)cc1 [compound 428, (2S,4R)-1-((R)-2-(3-(2-(4-((1r,3R)-3-((4-((E)-2-(3-amino-6-(2-hydroxyphenyl)pyridazin-4-yl)vinyl)pyridin-2-yl)oxy)cyclobutoxy)piperidin-1-yl)ethoxy)isoxazol-5-yl)-3-methylbutanoyl)-4-hydroxy-N-((S)-1-(4-(4-methylthiazol-5-yl)phenyl)ethyl)pyrrolidine-2-carboxamide] | > 75 | < 2.5
13 | Cc1ncsc1-c1ncc([C@H](C)NC(=O)[C@@H]2C[C@@H](O)CN2C(=O)[C@H](c2cc(OCCN3CCC(O[C@H]4C[C@H](Oc5cc(N6C7CCC6CN(c6cc(-c8ccccc8O)nnc6N)C7)ccn5)C4)CC3)no2)C(C)C)cn1 [compound 429, (2S,4R)-1-((2S)-2-(3-(2-(4-((1r,3S)-3-((4-(3-(3-amino-6-(2-hydroxyphenyl)pyridazin-4-yl)-3,8-diazabicyclo[3.2.1]octan-8-yl)pyridin-2-yl)oxy)cyclobutoxy)piperidin-1-yl)ethoxy)isoxazol-5-yl)-3-methylbutanoyl)-4-hydroxy-N-((S)-1-(2-(4-methylthiazol-5-yl)pyrimidin-5-yl)ethyl)pyrrolidine-2-carboxamide] |  | > 30
